Consider seven molecules from the supplement of paper PMC11061612.

Holding throughout (assay): Bliss excess, mean over the matrix (fraction); higher = more synergy
For assay [1], the system named is KMRC-20 (Kidney Carcinoma). The essentials:
(§1)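 Bliss excess equals the observed combination effect minus the expected value EA + EB − EA·EB, where EA and EB are the effects of each agent alone. Combination Emax is the second-highest inhibition within the matrix. Inhibition was scaled from CellTiter-Glo 2.0 luminescence, with 0 set by vehicle wells and 1 by blank wells, after 72 hours of two-drug dosing of cells plated in 1536-well plates.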

The subject of assay [2] is HuCCT1 (Biliary Tract Carcinoma). The essentials:
as §1

Assay [3] has as its system SW1573 (Lung Adenocarcinoma). The essentials:
as §1

The subject of assay [4] is NUGC-4 (Gastric Carcinoma). A digest of the protocol:
as §1

Assay [5] relates to NCI-H2052 (Mesothelioma). A digest of the protocol:
as §1

Assay [6] has as its system A673 (Ewing's Sarcoma). The essentials:
as §1

In assay [7] the test system is WSU-NHL (B-Cell Non-Hodgkin's Lymphoma). The essentials: as §1
The test system of assay [8] is BFTC-909 (Kidney Carcinoma). The essentials: as §1
The test system of assay [9] is MPP-89 (Mesothelioma). A digest of the protocol: as §1
For assay [10], the system named is LCLC-97TM1 (Non-Small Cell Lung Carcinoma). A digest of the protocol: as §1
Assay [11] relates to SAS (Oral Cavity Carcinoma). The essentials:
as §1

In assay [12] the test system is KYAE-1 (Esophageal Adenocarcinoma). The essentials:
as §1

Assay [13] deals with OV-56 (Ovarian Carcinoma). A digest of the protocol: as §1
For assay [14], the system named is ALL-PO (B-Lymphoblastic Leukemia). The essentials:
as §1

The subject of assay [15] is LOXIMVI (Melanoma). The essentials: as §1
Assay [16] concerns ESS-1 (Other Solid Carcinomas). A digest of the protocol: as §1
In assay [17] the test system is HH (T-Cell Non-Hodgkin's Lymphoma). A digest of the protocol:
as §1

Assay [18] deals with SW1710 (Bladder Carcinoma). The essentials: as §1
Assay [19] deals with BPH-1 (Non-Cancerous). A digest of the protocol:
as §1

Assay [20] relates to OVCAR-5 (Ovarian Carcinoma). A digest of the protocol:
as §1

As for `CN(CCO)CC[C@H](CSc1ccccc1)Nc1ccc(S(=O)(=O)NC(=O)c2ccc(N3CCC([C@@H](O)c4ccccc4-c4ccc(Cl)cc4)CC3)cc2)cc1S(=O)(=O)C(F)(F)F` [AZD4320] + Cn1cnc2c(F)c(Nc3ccc(Br)cc3Cl)c(C(=O)NOCCO)cc21 [Selumetinib] (first compound max 1 µM, 7x7, partner max 3 µM), the Bliss excess stood at 0.0022 in assay [1]; 0.0309 in assay [2]; 0.0119 in assay [3]; 0.0784 in assay [4]; 0.0283 in assay [5]; 0.0944 in assay [6]. In addition, the Bliss excess in assay [7] is -0.0491; in [8] it was 0.0212; in [9], -0.0056; in assay [10], 0.0523; in assay [11], 0.043; in assay [12] it was -0.0146. The Bliss excess in [13] was -0.0063; in [14] it was 0.0571; in assay [15], 0.0352; in [16], -0.0507; in assay [17] it was -0.0255; in assay [18], 0.0287. For the same molecule, the Bliss excess in assay [19] was 0.0021; in assay [20] it was -0.0282.

Regarding `COc1cccc(OCCCN)c1-c1cc(Nc2cnc(C#N)cn2)n[nH]1` [Prexasertib] + CN(C)CCCOc1ccc(-c2ccc3ncc4c(c3c2)n(C2CCOCC2)c(=O)n4C)cn1 [AZD0156] (first compound max 1 µM, 7x7, partner max 1 µM), the Bliss excess is -0.0382 in assay [1]; -0.0357 in [2]; -0.0129 in assay [3]; 0.0697 in [4]; -0.025 in assay [5]; 0.0133 in assay [6]. The Bliss excess was -0.0066 in assay [7]; -0.0397 in assay [8]; -0.0242 in assay [9]; -0.0439 in assay [10]; 0.0109 in [11]; 0.0184 in assay [12]. The Bliss excess in assay [13] is -0.0442; in [14] it was 0.0036; in assay [15], 0.0398; in assay [16] it was -0.0668; in assay [17], -0.0001; in [18], -0.022. Moreover, the Bliss excess is 0.0118 in [19] and -0.0273 in [20].

Turning to `CN(C)CCCOc1ccc(-c2ccc3ncc4c(c3c2)n(C2CCOCC2)c(=O)n4C)cn1` [AZD0156] + C[C@@H]1COCCN1C2=NC(=NC(=C2)C3(CC3)[S@](=N)(=O)C)C4=C5C=CNC5=NC=C4 [AZD6738] (first compound max 1 µM, 7x7, partner max 10 µM), the Bliss excess in assay [1] is -0.031; in [2], 0.0297; in assay [3] it was -0.0315; in [4], 0.0101; in assay [5], -0.0317; in assay [6], 0.0153. Moreover, the Bliss excess in assay [7] is -0.0252; in [8], 0.027; in assay [9] it was 0.0041; in assay [10] it was -0.0039; in assay [11], -0.0363; in assay [12] it was -0.011. Further, the Bliss excess in assay [13] is 0.0361; in [14], 0.0402; in [15] it was 0.0721; in assay [16], -0.0177; in [17], 0.0175; in [18], -0.0134. The Bliss excess in assay [19] was -0.0092; in [20], -0.001.

As for `CC1(C)CCC(CN2CCN(c3ccc(C(=O)NS(=O)(=O)c4ccc(NCC5CCOCC5)c([N+](=O)[O-])c4)c(Oc4cnc5[nH]ccc5c4)c3)CC2)=C(c2ccc(Cl)cc2)C1` [Venetoclax] + C[C@@H](Nc1cc(F)cc(F)c1)c1cc(C(=O)N(C)C)cc2c(=O)cc(N3CCOCC3)oc12 [AZD8186] (first compound max 1 µM, 7x7, partner max 3 µM), the Bliss excess is -0.0195 in [1]; -0.0383 in assay [2]; -0.0556 in assay [3]; 0.0298 in assay [4]; -0.0266 in [5]; -0.023 in [6]. Also, the Bliss excess in assay [7] is 0.0209; in assay [8], 0.0073; in assay [9], -0.0096; in assay [10], -0.0368; in assay [11] it was -0.0332; in assay [12], -0.0358. Further, the Bliss excess in [13] is -0.0178; in [14], 0.202; in assay [15], -0.0243; in assay [16], -0.0118; in assay [17] it was 0.0221; in assay [18], -0.0826. In addition, the Bliss excess in assay [19] is -0.0385; in assay [20], -0.0495.

Take `NC1(C(=O)N[C@@H](CCO)c2ccc(Cl)cc2)CCN(c2ncnc3[nH]ccc23)CC1` [Capivasertib] + COc1nnc2ccc(N3CCC(c4ccc(OCCN5CCN(C)C(=O)[C@H]5C)cc4)CC3)nn12 [AZD5153] (first compound max 10 µM, 7x7, partner max 1 µM): the Bliss excess was 0.0004 in assay [1]; 0.0113 in assay [2]; -0.0278 in assay [3]; -0.0333 in assay [4]; 0.0133 in assay [5]; -0.0386 in assay [6]. For the same molecule, the Bliss excess in assay [7] is -0.0923; in assay [8], 0.0433; in [9], -0.0632; in assay [10] it was 0.0079; in assay [11], -0.0524; in assay [12] it was 0.0352. The Bliss excess in [13] is 0.0506; in assay [14] it was -0.0116; in [15] it was 0.0133; in assay [16] it was 0.0342; in [17], 0.0022; in assay [18] it was 0.0751. Moreover, the Bliss excess is -0.0542 in [19] and 0.0138 in assay [20].

For `Cc1c2c(nn1C)CSCc1cc(n(C)n1)CSc1cc(c3ccccc3c1)OCCCc1c(C(=O)O)n(C)c3c-2c(Cl)ccc13` [AZD5991] + C[C@@H]1COCCN1C2=NC(=NC(=C2)C3(CC3)[S@](=N)(=O)C)C4=C5C=CNC5=NC=C4 [AZD6738] (first compound max 1 µM, 7x7, partner max 10 µM), the Bliss excess in assay [1] was -0.0153; in [2] it was 0.0206; in assay [3], 0.0337; in [4] it was 0.02; in [5], 0.039; in assay [6], 0.0077. For the same molecule, the Bliss excess was -0.0352 in [7]; 0.0508 in [8]; -0.0426 in [9]; 0.0401 in [10]; -0.0367 in assay [11]; 0.0054 in [12]. The Bliss excess in assay [13] was 0.0293; in assay [14], 0.0236; in assay [15] it was -0.0373; in assay [16], -0.0451; in assay [17], 0.0317; in [18], 0.0299. Also, the Bliss excess in [19] was 0.0039; in [20] it was -0.0248.

As to `Cc1c2c(nn1C)CSCc1cc(n(C)n1)CSc1cc(c3ccccc3c1)OCCCc1c(C(=O)O)n(C)c3c-2c(Cl)ccc13` [AZD5991] + Cc1cc2ncnn2cc1Nc1ncc2c(n1)n(C1CCOCC1)c(=O)n2C [AZD7648] (first compound max 1 µM, 7x7, partner max 10 µM), the Bliss excess in assay [1] is -0.0036; in assay [2], -0.032; in assay [3], -0.0896; in assay [4], -0.0498; in assay [5] it was -0.0556; in assay [6], -0.0515. Moreover, the Bliss excess in assay [7] was -0.0594; in assay [8], 0.0101; in assay [9], 0.0158; in [10], -0.0015; in assay [11], -0.0078; in [12] it was -0.0285. Moreover, the Bliss excess in assay [13] was -0.0059; in assay [14], -0.0304; in [15] it was 0.0193; in [16] it was -0.0292; in assay [17], -0.0536; in assay [18], -0.0209. Moreover, the Bliss excess in [19] was -0.0632; in [20], -0.0913.
